Assay type in all cases: cell-based
Assay [1] relates to Salmonella typhimurium enb-7. The source says:
(§1) In the indicator mutants, the synthesis of the respective siderophores, e.g. pyoverdin, pyochelin, enterobactin, aerobactin or yersiniabactin, or the biosynthesis of aromatic compounds, is blocked, or there is a lack of receptors for enterobactin, pyochelin or pyoverdin and for other important components for the bacterial transport of iron (e.g. the membrane proteins Cir, Fiu, FepA and TonB). Under conditions where there is a lack of iron, these mutants therefore cannot grow or can only grow to a very slight extent. In particular, the following indicator mutants were used: Pseudomonas aeruginosa PAO 6609, K 407, 690; E. coli AB 2847, Salmonella typhimurium enb-7, TA 270; Klebsiella pneumoniae KN 4401; Yersinia enterocolitica WAH; Proteus mirabilis 12 (wild); Proteus vulgaris 718 (wild) and Morganella morganii SBK3 (wild). […] The controls used were ferrioxamine E for the Pseudomonas strains, ferrioxamine G and enterobactin for the Salmonella strains, ferrichrome for the E. coli, Klebsiella and Y. enterocol. strains, and 3,4-dihydroxybenzylidene-2,4,6-trimethylaniline for Morganella morganii (see the above literature reference by R. Reissbrodt et al.).
(§2) The annotations + and (+) relate to non-specific promotion of growth.

The test system of assay [2] is Morganella morganii SBK3 (wild).
Source text: as §1, §2

For assay [3], the system named is Proteus mirabilis 12 (wild). The settings on record: Proteus mir. 12.
Source text: as §1, §2

The subject of assay [4] is Salmonella typhimurium TA 2700.
Source text: as §1, §2

In assay [5] the test system is Pseudomonas aeruginosa 690. Note: test concentration or dose not given here.
Source text: as §1, §2

In a further assay the test system is E. coli AB 2847. Note: test concentration or dose not given here.
Source text: as §1, §2

The subject of assay [6] is Pseudomonas aeruginosa PAO 6609.
Source text: as §1, §2

The test system of assay [7] is Klebsiella pneumoniae KN 4401. As to conditions: Klebsiella KN 4401.
Source text: as §1, §2

Assay [8] relates to Proteus vulgaris 718 (wild). The settings on record: Proteus vul. 718.
Source text: as §1, §2

Assay [9] relates to Pseudomonas aeruginosa K 407. The settings on record: Pseudomonas aeruginosa K407.
Source text: as §1, §2

The results in this text go back to patent publication US6380181B1, “Synthetic catechol derivatives, method for production and use thereof” (priority 1996, dated 2002).

Each structure is given as a SMILES string. Like-named read-outs stand apart in the source and are kept apart here.

Regarding `COC(=O)Oc1ccc(C=Nc2cccc(C(=O)O)c2)cc1OC(=O)OC` [Substance 1, 3-[3,4-di(Methoxycarbonyloxy)-benzylideneamino]-benzoic Acid], the “Growth areas of siderophore indicator strains (diameter)” value (from here on “Growth areas”) in [1] is 35 mm; in [2] (M. morg. SBK 3), 35 mm; in assay [3], 26 mm; in [4], 0 mm; in assay [5], 23 mm; in the assay with E. coli AB 2847, 0 mm. In addition, the “Growth areas” value in assay [6] was found to be 20 mm; in assay [7], 0 mm; in [8], 35 mm; in assay [9] it was 16 mm.

For `COC(=O)Oc1ccc(C=Nc2cc(C(=O)O)ccc2O)cc1OC(=O)OC` [Substance 2, 3-[3 ,4-di(Methoxycarbonyloxy)-benzylideneamino]4-hydroxybenzoic Acid], the “Growth areas” value is 30 mm in assay [1]; 20 mm in [2] (M. morg. SBK 3); 16 mm in assay [3]; 0 mm in [4]; 17 mm in [5]; 0 mm in the assay on E. coli AB 2847. Also, the “Growth areas” value in [6] was determined as 17 mm; in [7], 35 mm; in assay [8], 25 mm; in assay [9] it was 18 mm.

In the case of `COC(=O)Oc1ccc(C=Nc2cc(N=Cc3ccc(OC(=O)OC)c(OC(=O)OC)c3)cc(C(=O)O)c2)cc1OC(=O)OC` [Substance 4, 3,5-Bis-[3,4-di(methoxycarbonyloxy)-benzylideneamino]-benzoic Acid], the “Growth areas” value in assay [1] came to 34 mm; in [2] (M. morg. SBK 3) it was 27 mm; in assay [3], 23 mm; in assay [4], 0 mm; in assay [5], 18 mm; with E. coli AB 2847, 18 mm. In addition, the “Growth areas” value in assay [6] stood at 17 mm; in [7] it was 33 mm; in assay [8], 24 mm; in assay [9], 18 mm.

For `O=C(O)C(=NNC(=O)c1ccc(O)c(O)c1)c1ccccc1` [Substance 9, [(3,4-Dihydroxybenzoyl)-hydrazono]-phenylacetic Acid], the “Growth areas” value in assay [1] was 0 mm; in [3] it was 9 mm; in assay [4] it was 0 mm; in [5] it was 10 mm; in the assay with E. coli AB 2847 it was 0 mm; in assay [7], 27 mm.

Consider `CC(=O)Oc1cccc(C(=O)Nc2ccccc2C(=O)O)c1OC(C)=O` [Substance 16, 2-(2,3-Diacetoxy-benzoylamino)-benzoic Acid], for which the “Growth areas” value in assay [1] is recorded as 25 mm; in assay [4], 10 mm; in [5], 20 mm; in the assay on E. coli AB 2847, 24 mm; in assay [6], 20 mm; in [9] it was 20 mm.

Consider `CC(=O)Oc1cccc(C(=O)Nc2ccc(C(=O)O)cc2)c1OC(C)=O` [Substance 17, 4-(2,3-Diacetoxy-benzoylamino)benzoic Acid], for which the “Growth areas” value turned out to be 0 mm in assay [1], 12 mm in assay [2] (M. morg. SBK 3), 26 mm in the assay on E. coli AB 2847 and 0 mm in assay [6].

Regarding `O=C(NCCC[C@H](NC(=O)c1cccc(O)c1O)C(=O)O)c1cccc(O)c1O` [Substance 18, L-2,5-bis-(2,3-Dihydroxybenzoylamino)-pentanoic Acid], the “Growth areas” value in assay [1] came to 48 mm; in assay [4], 50 mm; in assay [5] it was 18 mm; in the assay with E. coli AB 2847, 30 mm; in [6], 20 mm; in assay [9] it was 17 mm.

With `C[C@H](NC(=O)c1cccc(O)c1O)C(=O)O` [Substance 19, L-2-(2,3-Dihydroxybenzoylamino)-propionic Acid], the “Growth areas” value in [1] is 29 mm; in assay [4], 17 mm; in assay [5], 0 mm; with E. coli AB 2847, 11 mm; in [9], 10 mm.

For the compound `CC(=O)Oc1cccc(C(=O)N[C@@H](C)C(=O)O)c1OC(C)=O` [Substance 20, L-2-(2,3-Diacetoxybenzoylamino)-propionic Acid], the “Growth areas” value in assay [1] turned out to be 31 mm; in [4] it was 12 mm; in [5] it was 0 mm; in the assay with E. coli AB 2847, 18 mm; in assay [9] it was 10 mm.

As for `O=C(NCC[C@H](NC(=O)c1cccc(O)c1O)C(=O)O)c1cccc(O)c1O` [Substance 21, L-2,4-Bis-(2,3-dihydroxybenzoylamino)-butyric Acid], the “Growth areas” value in assay [1] stood at 36 mm; in assay [4], 40 mm; in assay [5], 15 mm; in the assay on E. coli AB 2847 it was 33 mm; in assay [6] it was 14 mm; in assay [9], 15 mm.

For `O=C(NCCCCC(NC(=O)c1cccc(O)c1O)C(=O)NC[C@H](NC(=O)c1cccc(O)c1O)C(=O)O)c1cccc(O)c1O` (some centres unmarked) [Substance 22], the “Growth areas” value in [1] came out at 50 mm; in assay [4] it was 50 mm; in [5], 50 mm; with E. coli AB 2847, 0 mm; in assay [6], 48 mm; in assay [9], 40 mm.

For the compound `CC(=O)Oc1cccc(C(=O)N[C@@H](CO)C(=O)O)c1OC(C)=O` [Substance 23, L-2-[2,3-Diacetoxybenzoylamino)-3-hydroxypropionic Acid], the “Growth areas” value in assay [1] came out at 27 mm; in assay [4], 20 mm; in [5] it was 14 mm; with E. coli AB 2847, 22 mm.

Turning to `O=C(NCCC[C@@H](NC(=O)c1cccc(O)c1O)C(=O)O)c1cccc(O)c1O` [Substance 24, D-2,5-Bis-(2,3-dihydroxybenzoylamino)-pentanoic Acid], the “Growth areas” value was found to be 50 mm in assay [1]; 40 mm in [4]; 20 mm in assay [5]; 40 mm in the assay with E. coli AB 2847; 20 mm in assay [6]; 20 mm in assay [9].

As to `CC(=O)Oc1cccc(C(=O)NCCCC[C@H](NC(=O)c2cccc(OC(C)=O)c2OC(C)=O)C(=O)O)c1OC(C)=O` [Substance 25, 1L-2,6-Bis-(2,3-diacetoxybenzoylamino)-hexanoic Acid], the “Growth areas” value in [1] came to 28 mm; in assay [2], 38 mm; with E. coli AB 2847 it was 30 mm; in assay [6], 18 mm.

`CC(=O)Oc1cccc(C(=O)N2COC[C@H]2C(=O)O)c1OC(C)=O` [Substance 26, (S)-3-(2,3-diacetoxybenzoyl)-oxazolidine-4-carboxylic Acid]: the “Growth areas” value in [1] came out at 32 mm; in [2] (M. morg. SBK 3), 10 mm; with E. coli AB 2847, 14 mm; in assay [6], 0 mm.
